Molecules are shown by their SMILES. Entries after “also recorded” stand apart in the source; their conditions may differ.

As usually defined, the MIC is the lowest concentration found to suppress growth.

A short description of series [1]: Gravimetric vapour sorption (GVS/DVS), hygroscopicity. Type of series: physicochemical. The conditions noted are these: DVS, 25° C., 0-90% RH; sulfate. As for the experimental part: Sorption isotherms were obtained using a SMS DVS Intrinsic moisture sorption analyser, controlled by DVS Intrinsic Control software v1.0.1.2 (or v 1.0.1.3). The sample temperature was maintained at 25° C. by the instrument controls. The humidity was controlled by mixing streams of dry and wet nitrogen, with a total flow rate of 200 ml/min The relative humidity was measured by a calibrated Rotronic probe (dynamic range of 1.0-100% RH), located near the sample. The weight change, (mass relaxation) of the sample as a function of % RH was constantly monitored by the microbalance (accuracy ±0.005 mg).
Typically 5-20 mg of sample was placed in a tared mesh stainless steel basket under ambient conditions. The sample was loaded and unloaded at 40% RH and 25° C. (typical room conditions). A moisture sorption isotherm was performed as outlined below (2 scans giving 1 complete cycle). The standard isotherm was performed at 25° C. at 10% RH intervals over a 0-90% RH range Data analysis was undertaken in Microsoft Excel using DVS Analysis Suite v6.2 (or 6.1 or 6.0).
The sample was recovered after completion of the isotherm and re-analysed by XRPD.

Series [2] relates to Kpn.571 (TEM-26, clinical). The experiment in a line: Standard BLI potentiation MIC assay. The format is cell-based. The conditions noted are these: Klebsiella pneumoniae, read-out: MIC of β-lactam with BLI. As for the experimental part:
(§1) The experimental protocol was performed according to Clinical and Laboratory Standards Institute (CLSI) guidelines with modifications as described below (CLSI guidelines can be derived from the CLSI document M07-A9 published in January 2012: “Methods for Dilution Antimicrobial Susceptibility Tests for Bacteria That Grow Aerobically; Approved Standard-Ninth Edition”).
(§2) To prepare for MIC testing, frozen glycerol stocks of clinical isolates (Klebsiella pneumoniae, Eschericia coli, Enterobacter spp, Citrobacter spp, or Pseudomonas aeruginosa) were used to streak for isolated colonies on rich, non-selective, tryptic soy agar containing 5% sheep's blood (TSAB). Frozen glycerol stocks of laboratory engineered, isogenic E. coli strains, which contain cloned β-lactamase expressing plasmids were used to streak for isolated colonies on rich, selective LB agar supplemented with 25 μg/mL tetracycline to maintain the plasmid. All strains were incubated at 37° C. for 18-24 hrs.
(§3) On the day of testing, primary cultures were started by scraping off 5-10 colonies from the TSAB plates containing clinical strains or the tetracycline supplemented LB plates containing engineered strains. The clinical strain material was suspended in ˜5 mL of cation adjusted Mueller Hinton Broth (CAMHB) in 14 mL culture tubes. The engineered strain material was suspended in CAMHB (supplemented with 25 μg/mL tetracycline) in 14 mL culture tubes. All strains were incubated at 37° C. with aeration (200 rpm) for ˜2 hrs until the optical density at 600 nm (OD600) was ≧0.1.
(§4) The two compound components of the assay were each diluted in CAMHB and added to the 96-well broth microdilution assay plates. 50 μL of the β-lactam was added to each well of the assay plate in 2-fold dilutions with final concentrations ranging from 128 to 0.13 μg/mL. 25 μL of the BLI compound was added to all wells in the broth microdilution plates at a final concentration of 4 μg/mL. Inoculum cultures were prepared by standardizing the primary cultures to OD600=0.1 and then adding 20 μL of the adjusted primary culture per 1 mL CAMHB for clinical strains or CAMHB (supplemented with tetracycline at 100 μg/mL) for engineered strains, so that the final inoculum density was ˜10^5 colony forming units per milliliter. Diluted inoculum cultures were used to inoculate 25 μL per well in 96-well broth microdilution assay plates. The final volume of each well was 100 μL and contained a β-lactam at different concentrations, a BLlcompound at 4 μg/mL concentration, the bacterial culture at an OD600 of approximately 0.001 and when necessary tetracycline at 25 μg/mL.
(§5) Plates were incubated for 18-20 hours at 37° C. with aeration (200 rpm). Following incubation, growth was confirmed visually placing plates over a viewing apparatus (stand with a mirror underneath) and then OD600 was measured using a SpectraMax 340PC384 plate reader (Molecular Devices, Sunnyvale, Calif.). Growth was defined as turbidity that could be detected with the naked eye or achieving minimum OD600 of 0.1. MIC values were defined as the lowest concentration producing no visible turbidity.

Series [3] relates to Kpn.2783 (CTX-M-15, SHV+, TEM+, clinical). The experiment in a line: Standard BLI potentiation MIC assay. To be noted: Klebsiella pneumoniae, read-out: MIC of β-lactam with BLI. Type of series: cell-based. As for the experimental part: as §1, §2, §3, §4, §5
Series [4] relates to Pae.2885 (AmpC, clinical). The experiment in a line: Standard BLI potentiation MIC assay. To be noted: Pseudomonas aeruginosa, read-out: MIC of β-lactam with BLI. The format is cell-based. As for the experimental part: as §1, §2, §3, §4, §5
Series [5] concerns Pae.2757 (AmpC over-expn, clinical). Kind of series: Standard BLI potentiation MIC assay. Type of series: cell-based. To be noted: Pseudomonas aeruginosa, read-out: MIC of β-lactam with BLI. As for the experimental part:
as §1, §2, §3, §4, §5

The test system of series [6] is Kpn.2909 (KPC-3, SHV+, TEM+, clinical). The experiment in a line: Standard BLI potentiation MIC assay. The format is cell-based. To be noted: Klebsiella pneumoniae, read-out: MIC of β-lactam with BLI. Here is the method: as §1, §2, §3, §4, §5
In series [7] the test system is Pae.2808 (KPC-2, clinical). Kind of series: Standard BLI potentiation MIC assay. The format is cell-based. The conditions noted are these: Pseudomonas aeruginosa, read-out: MIC of β-lactam with BLI. As for the experimental part: as §1, §2, §3, §4, §5
Series [8] concerns Kpn.2913 (KPC-2, SHV+, clinical). Kind of series: Standard BLI potentiation MIC assay. Type of series: cell-based. To be noted: Klebsiella pneumoniae, read-out: MIC of β-lactam with BLI. As for the experimental part: as §1, §2, §3, §4, §5
Series [9] relates to Kpn.2478 (KPC-2, TEM+, clinical). Kind of series: Standard BLI potentiation MIC assay. The format is cell-based. The conditions noted are these: Klebsiella pneumoniae, read-out: MIC of β-lactam with BLI. As for the experimental part: as §1, §2, §3, §4, §5
The test system of series [10] is Kpn.2926 (CTX-M-15, OXA-48, clinical). The experiment in a line: Standard BLI potentiation MIC assay. The format is cell-based. The conditions noted are these: Klebsiella pneumoniae, read-out: MIC of β-lactam with BLI. Here is the method:
as §1, §2, §3, §4, §5

Series [11] concerns Kpn.2918 (KPC-3, SHV+, TEM+, clinical). The experiment in a line: Standard BLI potentiation MIC assay. Type of series: cell-based. The conditions noted are these: Klebsiella pneumoniae, read-out: MIC of β-lactam with BLI. As for the experimental part: as §1, §2, §3, §4, §5
For series [12], the system named is Kpn.2914 (KPC-2, SHV+, clinical). Kind of series: Standard BLI potentiation MIC assay. The format is cell-based. To be noted: Klebsiella pneumoniae, read-out: MIC of β-lactam with BLI. Here is the method: as §1, §2, §3, §4, §5
Series [13] has as its system Kpn.2490 (KPC-3, SHV+, TEM+, clinical). The experiment in a line: Standard BLI potentiation MIC assay. Type of series: cell-based. To be noted: Klebsiella pneumoniae, read-out: MIC of β-lactam with BLI. As for the experimental part:
as §1, §2, §3, §4, §5

Series [14] deals with Kpn.2917 (KPC-2, SHV+, clinical). Kind of series: Standard BLI potentiation MIC assay. Type of series: cell-based. The conditions noted are these: Klebsiella pneumoniae, read-out: MIC of β-lactam with BLI. As for the experimental part:
as §1, §2, §3, §4, §5

The test system of series [15] is Pae.2863 (AmpC de-repress, clinical). The experiment in a line: Standard BLI potentiation MIC assay. The format is cell-based. The conditions noted are these: Pseudomonas aeruginosa, read-out: MIC of β-lactam with BLI. As for the experimental part:
as §1, §2, §3, §4, §5

Regarding `O=C1N2C[C@@H](CC[C@H]2c2nnco2)N1OS(=O)(=O)[O-].[Na+]` [Hydrate 1, sodium (2S,5R)-2-(1,3,4-oxadiazol-2-yl)-7-oxo-1,6-diazabicyclo[3.2.1]octan-6-yl sulfate], the “hygroscopicity relative to the amorphous form” value in series [1] is “significantly less hygroscopic than the amorphous form; also recorded: low hygroscopicity relative to amorphous”. Moreover, the MIC in [2] was 0.25 to 0.5 µg/mL; in series [3], 0.25 to 0.5 µg/mL; in series [4], 0.25 to 0.5 µg/mL; in [5], 1 to 2 µg/mL; in series [6], 1 to 2 µg/mL; in series [7] it was 4 to 8 µg/mL. In addition, the minimum inhibitory concentration (MIC) in series [8] was 0.25 to 0.5 µg/mL; in series [9], 4 to 8 µg/mL; in series [10], 1 to 2 µg/mL; in [11] it was 1 to 2 µg/mL; in series [12], 1 to 2 µg/mL; in [13], 0.25 to 0.5 µg/mL. In addition, the MIC lay within 0.25 to 0.5 µg/mL in [14] and 1 to 2 µg/mL in series [15].

(Values after patent US9120795B2, “Crystalline form of a β-lactamase inhibitor” (Cubist Pharmaceuticals, Inc., priority 2013, dated 2015).)
